# According to US20190125864A1, “COMBINATION THERAPY OF RAMUCIRUMAB AND ABEMACICLIB FOR USE IN TREATMENT OF MANTLE CELL LYMPHOMA” (Eli Lilly and Company, priority 2016, published 2019):
# Tested on: human Mino xenografts
# Assay: IVEF study: growth inhibition of subcutaneous Mino xenografts (mantle cell lymphoma) in mice
# Assay type: in vivo
# Settings: for % ΔT/C: day 53, baseline day 32
# Procedure: This study evaluates the overall sensitivity of the Mino xenograft model for mantle cell lymphoma (MCL) to growth inhibition by abemaciclib. Accordingly, mice are implanted subcutaneously with human Mino xenografts treated once-daily for 28 days (QD×28) with 25 or 50 mg/kg of abemaciclib monomesylate (“compound”). In addition the response of this model to single-agent DC101, an antibody inhibitor of VEGFR2, is also evaluated as well as the combination of this antibody with abemaciclib. DC101, which is a mouse surrogate of ramucirumab, is evaluated in these studies at a dose of 20 mg/kg given twice-weekly over a period of 4 weeks (BIW×4) whereas mice in the combination group are given this dose of DC101 plus 25 mg/kg of abemaciclib. Tumor volume measurements are taken periodically to determine the effects of the various treatments on tumor growth and periodic body weight measurements are used as a general indicator of tolerability.
# Female Fox Chase CB17SCID (Harlan Laboratories) mice are used for these studies. The animals are housed until they reach 18-20 […] in size.
# The compound is formulated in 1% hydroxyethyl cellulose (HEC) in 25 mM phosphate buffer (PB) pH=2. The compound is formulated on a weekly basis and stored at 4° C. For the efficacy studies, the compound is administered by oral gavage once-daily for 28 days (PO, QD×28) at doses of 25 or 50 mg/kg using 0.2 ml/dose beginning on day 33 after tumor implantation. The control group is given 1% HEC vehicle according to the same schedule for the compound. The mouse surrogate for ramucirumab known as DC101 is formulated in phosphate buffered saline (PBS) and is given twice-weekly (BIW) for 4 weeks as an intraperitoneal (IP) injection at a dose of 20 mg/kg beginning on day 34. Mice in the combination group are given 25 mg/kg of the compound and 20 mg/kg of DC101 following the schedules outlined above for the monotherapy groups.
# The human MCL line Mino is grown in RPMI 1640 medium+20% fetal bovine serum (FBS). Sub-confluent cells are harvested and rinsed twice with Hank's balanced saline solution (HBSS) without serum. For subcutaneous tumors, growth is initiated by subcutaneous injection of 5×10^6 cells in a 1:1 mixture of HBSS and MATRIGEL® (BD Bioscience, Franklin Lakes, N.J.) in the rear flank of each subject animal. When mean tumors volumes reach approximately 150 mm^3 in size, the animals are randomized by tumor size and body weight using a proprietary block randomization allocation tool and placed into their respective treatment groups using 7 animals per group.
# Tumor size and body weight are captured using WEB DIRECTOR™. Tumor volume (V) is estimated by using the formula: V=0.536L×W^2 where L=larger of measured diameter and W=smaller of perpendicular diameter. The tumor volume data is transformed to a log scale to equalize variance across time and treatment groups. The log volume data ae analyzed with a two-way repeated measures analysis of variance by time and treatment using the MIXED procedures in SAS software (Version 9.3). The correlation model for the repeated measures is Spatial Power. Treated groups are compared to the control group at each time point. The MIXED procedure is also used separately for each treatment group to calculate adjusted means and standard errors at each time point. Both analyses accounted for the autocorrelation within each animal and the loss of data that occur when animals with large tumors are removed from the study early. The adjusted means and standard errors are plotted for each treatment group versus time.
# Relative changes in tumor volume (% ΔT/C) are calculated using the tumor volume measurements taken on the day (day 53) when the control group has to be sacrificed due to tumor sizes that exceeded the threshold defined by ethical guidelines. […]
smiles,measurement,setting,value
"CCN1CCN(Cc2ccc(Nc3ncc(F)c(-c4cc(F)c5nc(C)n(C(C)C)c5c4)n3)nc2)CC1 [Compound, [5-(4-ethyl-piperazin-1-ylmethyl)-pyridin-2-yl]-[5-fluoro-4-(7-fluoro-3-isopropyl-2-methyl-3H-benzoimidazol-5-yl)-pyrimidin-2-yl]-amine]",% ΔT/C,"25 mg/kg Compound PO QD×28, 25 mg/kg",5.2%
same,% ΔT/C,"25 mg/kg Compound PO QD×28, listed as compound, 25 mg/kg",approximately 5%
same,% ΔT/C,"50 mg/kg Compound PO QD×28, negative value = % regression",−63.6%
same,Mean Tumor Volume,"day 53, 25 mg/kg Compound PO QD×28, CB17SCID mice, subcutaneous Mino xenografts",317.4 mm^3
same,Mean Tumor Volume,"day 53, 50 mg/kg Compound PO QD×28, CB17SCID mice, subcutaneous Mino xenografts",55.4 mm^3
same,mice achieved a partial response (PR),"day 53, 50 mg/kg abemaciclib, 7 of 7 mice",100%
same,mean tumor volume reduced (regression),"day 53, 50 mg/kg compound",64%
same,Mean Tumor Volume,"day 60 (last day of dosing), 25 mg/kg Compound PO QD×28",348.6 mm^3
same,Mean Tumor Volume,"day 60 (last day of dosing), 50 mg/kg Compound PO QD×28",37.9 mm^3
